Blank lines part the entries; values can stand above or below the compound they belong to. *: point of attachment. AMC = Cc1cc(=O)oc2cc(N*)ccc12
Tests used:
[1] = tested on: HeLa cell extracts; test: HeLa cell extract Ac-Lys(ε-succinyl)-AMC desuccinylation activity; format: biochemical, human; conditions: 50 μM Ac-Lys(Succ.)-AMC, +NAD^+ 500 μM; TSA 1 μM, suramin 200 μM
Method: (§1) Enzyme and extract catalog products obtained from ENZO Life Sciences included: HDAC1 (Cat. # BML-SE456), HDAC2 (Cat. # BML-SE500), HDAC3 (Cat. # BML-SE507), HDAC3/NCOR1 Complex (Cat. # BML-SE515), HDAC6 (Cat. # BML-SE508), HDAC8 (Cat. # BML-SE145), HDAC10 (Cat. # BML-SE559), HDAC11 (Cat. # BML-SE560), SIRT1 (Cat. # BML-SE239), SIRT2 (Cat. # BML-SE251), SIRT3 (Cat. # BML-SE270), SIRT5 (Cat. # BML-SE555), HeLa Nuclear Extract (Cat. # BML-KI140), Trypsin (“Fluor de Lys Developer”, 80 mg/ml bovine trypsin in 1 mM HCl, Cat. # BML-KI105 or “Fluor de Lys Developer II”, 80 mg/ml bovine trypsin in 1 mM HCl, Cat. # BML-KI176). […] Enzymes obtained from BPS Bioscience, San Diego, Calif. included: human recombinants SIRT4 (Cat. #50015), SIRT6 (Cat. #50017), SIRT7 (Cat. #50018). HeLa whole cell extract was obtained from HeLa S3 cells (American Type Culture Collection) grown in a medium of MEM/10% fetal bovine serum (FBS) as follows: 1) 9×10^6 cells were suspended by trypsinization, followed by a phosphate buffered saline (PBS) rinse and addition of MEM/10% FBS (1.5 mL) to eliminate trypsin before transfer to a 15 mL conical tube; 2) cells were sedimented by a low speed centrifugation, gently resuspended in PBS and sedimented again and supernatant removed; 3) lysis was induced by resuspension in 0.8 mL 50 mM Tris/HCl, pH 8.0 with the non-denaturing detergent NP-40 (0.5%), placement on ice and brief vortexing every 5 min. for 30 min.; 4) 100 μl of a concentrated salt solution in the same buffer was added in order to bring the final buffer composition to 50 mM Tris/C1, pH 8.0, 137 mM NaCl, 2.7 mM KCl, 1 mM MgCl2, 0.5% NP-40; 5) particulate matter was cleared by centrifugation and the cleared lysate supernatant transferred to a 1.5 mL Eppendorf tube and stored on ice until use in activity assays.
Assays were performed at 37° C., according to the manufacturer's instructions for the “SIRT1 Fluorometric Drug Discovery Kit” from Enzo Life Sciences (ELS) (Cat. # BML-AK555), with exceptions described as follows. […]

[2] = molecular target: T1, SIRT5 (Homo sapiens, UniProt Q9NXA8); test: Inhibition of SIRT5 desuccinylation of Ac-Lys(Succ.)-AMC; format: biochemical; set-up: purchased Enzo Life Sciences BML-SE555; conditions: three parameter Hill-Slope model, bottom fixed at 0
T1 sequence (Q9NXA8 37-310): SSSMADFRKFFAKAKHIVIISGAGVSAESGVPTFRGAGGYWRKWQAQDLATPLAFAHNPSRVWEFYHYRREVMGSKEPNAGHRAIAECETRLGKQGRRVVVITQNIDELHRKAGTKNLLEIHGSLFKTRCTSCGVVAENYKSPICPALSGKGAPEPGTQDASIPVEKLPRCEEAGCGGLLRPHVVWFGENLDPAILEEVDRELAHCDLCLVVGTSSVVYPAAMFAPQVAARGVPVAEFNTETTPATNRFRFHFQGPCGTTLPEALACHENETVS
From the text: Signal development (trypsin treatment) and fluorescence readings were done as described, as were the conversion of fluorescence increases to rates in units of pmol/min/μg (FIG. 5). Data points represent the mean of three determinations and the error bars are the standard deviations from those means. The dose-response curve was derived from a least-squares fit to a three parameter Hill-Slope model (bottom fixed at 0 pmol/min/μg), y=top/(1+(x/IC50)^slope).
Data points represent the mean of three determinations and the error bars are the standard deviations from those means. The dose-response curve was derived from a least-squares fit to a three parameter Hill-Slope model (bottom fixed at 0 pmol/min/μg), y=top/(1+(x/IC50)^slope).
(§2) Assays were performed at 37° C., according to the manufacturer's instructions for the “SIRT1 Fluorometric Drug Discovery Kit” from Enzo Life Sciences (ELS) (Cat. # BML-AK555), with exceptions described as follows. Where indicated in figures and text, SIRT1 enzyme was replaced with another enzyme or extract and the “Fluor de Lys-SIRT1 Substrate” (Ac-Arg-His-Lys-Lys(Ac)-AMC; ELS Cat. # BML-KI-177) was replaced with another acetylated, succinylated or trifluoroacetylated substrate.

[3] = tested on: HeLa cells; test: Intact HeLa cell desuccinylation/deacetylation assay; format: cell-based, human; conditions: 200 μM Ac-Lys(Ac.)-AMC, four hours, TSA 1 μM
Method: HeLa cells were cultured to 95% confluence in the wells of ½-volume 96-well plates. […] After the indicated time, cells were lysed with detergent and trypsin added to release AMC from desuccinylated or deacetylated substrate and then fluorescence read (Ex.360 nm/Em. 460 nm). For “0 hr.” samples, substrate, inhibitors, lysis buffer and trypsin were added simultaneously. Bars represent the mean of three determinations and the error bars the Standard Deviation from that mean. Statistically significant differences between the fluorescences of “4 hr.” and “0 hr.” samples (Student's t-test) are indicated by asterisks as follows: *,p<0.02; **, p<0.002.
An assay employing Ac-Lys(Ac.)-AMC to measure the HDAC and sirtuin deacetylase activity of intact cultured cells has been described (Howitz, K. T. et al. Nature 425, 191-196 (2003); Product Manual of Enzo Life Sciences Cat. # BML-AK-503, “HDAC Fluorimetric Cellular Activity Assay Kit”, Appendix F). Ac-Lys(Ac)-AMC is added to the culture medium, enters the cells and is deacetylated by HDACs and sirtuins in their native intracellular context. Measurement of the amount of Ac-Lys-AMC produced by intracellular deacetylation is then accomplished by detergent lysis of the cells and release of the AMC fluorophore by trypsin. We therefore investigated whether Ac-Lys(Succ.)-AMC could be used to measure intracellular desuccinylation activity, in a similar fashion, with cultured HeLa cells. […] These latter, deacetylation results are consistent with previous observations made with this assay system (see Howitz, K. T. et al. Nature 425, 191-196 (2003) and Appendix F).
Assays (FIG. 10) were performed according to the manufacturer's instructions for the ““HDAC Fluorometric Cellular Activity Assay Kit” (ELS Cat. # BML-AK503), with exceptions described as follows. Where indicated the “Fluor de Lys Substrate” (Ac-Lys(Ac.)-AMC; ELS Cat. # BML-KI104) was replaced with Ac-Lys(Succ.)-AMC (1).

[4] = molecular target: T2, SIRT2 (Homo sapiens, UniProt Q8IXJ6); test: Sirtuin activity with fluorogenic lysyl substrates; format: biochemical; conditions: 50 μM substrate, 500 μM NAD^+
T2 sequence (Q8IXJ6 1-389): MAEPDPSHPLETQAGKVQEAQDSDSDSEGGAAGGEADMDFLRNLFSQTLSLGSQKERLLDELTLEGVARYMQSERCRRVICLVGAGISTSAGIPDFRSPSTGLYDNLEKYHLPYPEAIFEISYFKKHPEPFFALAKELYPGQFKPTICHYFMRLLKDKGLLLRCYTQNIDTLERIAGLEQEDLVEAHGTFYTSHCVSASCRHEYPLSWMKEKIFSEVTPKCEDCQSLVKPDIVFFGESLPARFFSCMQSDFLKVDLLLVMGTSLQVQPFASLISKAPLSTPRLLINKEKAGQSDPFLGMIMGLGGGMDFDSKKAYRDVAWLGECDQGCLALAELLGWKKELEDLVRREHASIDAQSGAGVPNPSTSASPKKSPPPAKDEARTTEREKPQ
Method: (§3) The Ac-Lys(Succ.)-AMC substrate was tested for activity with recombinant preparations of human HDACs 1-11, SIRTs 1-4, 6 and 7, a complex of HDAC3 with a fragment of the activating protein NCOR1 and with HeLa nuclear extract, a rich source of active HDACs in their native multiprotein complexes.
as §1, §2

[5] = molecular target: T3, SIRT3 (Homo sapiens, UniProt Q9NTG7); test: Sirtuin activity with fluorogenic lysyl substrates; format: biochemical; conditions: 50 μM substrate, 500 μM NAD^+
T3 construct: purchased ENZO Life Sciences BML-SE270
T3 sequence (Q9NTG7 1-399): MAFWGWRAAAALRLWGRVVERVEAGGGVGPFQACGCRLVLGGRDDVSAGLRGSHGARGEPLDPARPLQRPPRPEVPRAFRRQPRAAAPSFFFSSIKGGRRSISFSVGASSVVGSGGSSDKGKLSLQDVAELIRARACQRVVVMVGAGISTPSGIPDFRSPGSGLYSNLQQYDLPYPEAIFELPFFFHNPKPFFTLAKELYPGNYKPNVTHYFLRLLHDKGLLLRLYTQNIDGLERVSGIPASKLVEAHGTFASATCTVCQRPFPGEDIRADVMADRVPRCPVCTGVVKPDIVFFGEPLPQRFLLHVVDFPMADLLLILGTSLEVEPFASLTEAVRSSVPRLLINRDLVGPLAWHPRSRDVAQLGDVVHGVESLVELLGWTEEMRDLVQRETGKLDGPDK
Method: as §3, §1, §2

[6] = tested on: HDAC4; test: HDAC activity with fluorogenic lysyl substrates; format: biochemical, human; conditions: 50 μM substrate
Method: as §3
Enzyme and extract catalog products obtained from ENZO Life Sciences included: HDAC1 (Cat. # BML-SE456), HDAC2 (Cat. # BML-SE500), HDAC3 (Cat. # BML-SE507), HDAC3/NCOR1 Complex (Cat. # BML-SE515), HDAC6 (Cat. # BML-SE508), HDAC8 (Cat. # BML-SE145), HDAC10 (Cat. # BML-SE559), HDAC11 (Cat. # BML-SE560), SIRT1 (Cat. # BML-SE239), SIRT2 (Cat. # BML-SE251), SIRT3 (Cat. # BML-SE270), SIRT5 (Cat. # BML-SE555), HeLa Nuclear Extract (Cat. # BML-KI140), Trypsin (“Fluor de Lys Developer”, 80 mg/ml bovine trypsin in 1 mM HCl, Cat. # BML-KI105 or “Fluor de Lys Developer II”, 80 mg/ml bovine trypsin in 1 mM HCl, Cat. # BML-KI176). […] Enzymes obtained from BPS Bioscience, San Diego, Calif. included: human recombinants SIRT4 (Cat. #50015), SIRT6 (Cat. #50017), SIRT7 (Cat. #50018). […]

[7] = molecular target: T4, HDAC5 (Homo sapiens, UniProt Q9UQL6); test: HDAC activity with fluorogenic lysyl substrates; format: biochemical; conditions: 50 μM substrate
T4 construct: made in house; host or cells: E. coli
Method: as §3, §1, §2

[8] = molecular target: T5, HDAC7 (Homo sapiens, UniProt Q8WUI4); test: HDAC activity with fluorogenic lysyl substrates; format: biochemical; conditions: 50 μM substrate
T5 construct: made in house; host or cells: E. coli
T5 sequence (Q8WUI4 483-903): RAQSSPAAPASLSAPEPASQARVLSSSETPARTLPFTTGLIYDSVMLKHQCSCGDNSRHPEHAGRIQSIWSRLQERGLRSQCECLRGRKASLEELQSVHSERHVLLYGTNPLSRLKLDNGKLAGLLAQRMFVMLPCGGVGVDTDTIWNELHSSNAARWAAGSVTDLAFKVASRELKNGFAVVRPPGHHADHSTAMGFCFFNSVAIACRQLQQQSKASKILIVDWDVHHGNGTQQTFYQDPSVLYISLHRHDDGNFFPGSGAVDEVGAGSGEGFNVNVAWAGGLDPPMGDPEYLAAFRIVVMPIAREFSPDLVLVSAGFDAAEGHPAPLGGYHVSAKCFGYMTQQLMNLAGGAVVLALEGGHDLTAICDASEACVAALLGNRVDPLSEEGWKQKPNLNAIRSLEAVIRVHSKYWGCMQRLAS
Method: as §3, §1, §2

[9] = molecular target: T6, HDAC9 (Homo sapiens, UniProt Q9UKV0); test: HDAC activity with fluorogenic lysyl substrates; format: biochemical; conditions: 50 μM substrate
T6 construct: made in house; host or cells: E. coli
Method: as §3, §1, §2

[10] = molecular target: T2, SIRT2; conditions: varied Lysyl, cited from earlier work

Chain of HDAC4 (P56524 626-1084 limits assumed): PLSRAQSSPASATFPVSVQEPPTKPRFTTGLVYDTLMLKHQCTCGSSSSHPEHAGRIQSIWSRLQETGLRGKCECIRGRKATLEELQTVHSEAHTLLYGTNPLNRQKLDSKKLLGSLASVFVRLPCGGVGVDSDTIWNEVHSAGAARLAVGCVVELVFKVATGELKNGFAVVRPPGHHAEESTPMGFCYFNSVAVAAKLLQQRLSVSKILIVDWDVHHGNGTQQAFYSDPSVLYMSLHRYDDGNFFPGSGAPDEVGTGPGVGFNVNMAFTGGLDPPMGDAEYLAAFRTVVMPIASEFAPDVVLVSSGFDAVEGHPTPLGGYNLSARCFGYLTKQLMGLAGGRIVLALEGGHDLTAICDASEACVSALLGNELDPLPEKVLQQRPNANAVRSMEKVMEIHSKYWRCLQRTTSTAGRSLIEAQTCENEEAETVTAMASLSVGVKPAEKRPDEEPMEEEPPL
T4 sequence (Q9UQL6 656-1122): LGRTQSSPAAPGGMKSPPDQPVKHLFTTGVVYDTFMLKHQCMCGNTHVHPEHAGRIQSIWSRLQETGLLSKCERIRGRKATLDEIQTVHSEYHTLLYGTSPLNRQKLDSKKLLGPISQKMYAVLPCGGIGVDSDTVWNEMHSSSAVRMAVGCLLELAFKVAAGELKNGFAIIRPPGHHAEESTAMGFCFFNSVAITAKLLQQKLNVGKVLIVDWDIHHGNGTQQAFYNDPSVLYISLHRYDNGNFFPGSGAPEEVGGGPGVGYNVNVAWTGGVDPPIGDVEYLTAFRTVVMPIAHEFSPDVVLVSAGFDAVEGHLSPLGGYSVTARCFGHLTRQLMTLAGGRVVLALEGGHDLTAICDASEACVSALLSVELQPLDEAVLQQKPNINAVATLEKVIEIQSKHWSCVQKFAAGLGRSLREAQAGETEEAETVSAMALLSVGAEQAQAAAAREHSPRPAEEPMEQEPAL
T6 sequence (Q9UKV0 644-1066 isoform Q9UKV0-5): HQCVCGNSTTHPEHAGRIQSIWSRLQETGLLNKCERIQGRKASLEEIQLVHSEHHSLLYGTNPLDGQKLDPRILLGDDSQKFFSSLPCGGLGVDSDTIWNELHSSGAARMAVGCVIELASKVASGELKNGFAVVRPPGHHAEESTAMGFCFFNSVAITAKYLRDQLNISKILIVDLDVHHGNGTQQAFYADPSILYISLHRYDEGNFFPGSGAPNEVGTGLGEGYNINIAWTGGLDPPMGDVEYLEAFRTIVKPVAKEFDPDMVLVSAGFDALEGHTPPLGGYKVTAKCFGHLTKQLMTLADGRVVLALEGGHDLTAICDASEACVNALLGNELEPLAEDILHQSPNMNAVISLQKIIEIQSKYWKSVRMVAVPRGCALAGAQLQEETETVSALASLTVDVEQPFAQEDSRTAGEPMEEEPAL

Compound: Cc1ccc(C(=O)Nc2ccc(S(=O)(=O)O)c3cc(S(=O)(=O)O)cc(S(=O)(=O)O)c23)cc1NC(=O)c1cccc(NC(=O)Nc2cccc(C(=O)Nc3cc(C(=O)Nc4ccc(S(=O)(=O)O)c5cc(S(=O)(=O)O)cc(S(=O)(=O)O)c45)ccc3C)c2)c1 [suramin]
Inhibition of the total 2 hr. fluorescence increase [1]: ~50% | slope (fitted parameter of dose-response curve) [2]: 2.37 | top (fitted parameter of dose-response curve) [2]: 127 pmol/min/µg

Compound: CC(/C=C/C(=O)NO)=C\[C@@H](C)C(=O)c1ccc(N(C)C)cc1 [trichostatin A]
Inhibition of the total 2 hr. fluorescence increase [1]: ~50% | Fraction of deacetylation sensitive to inhibitor [3]: > 90%

Activity (pmol/min/μg) [4]: Ac-QPKK(Ac)-AMC/18.6 pmol/min/μg | Activity (pmol/min/μg) [5]: Ac-QPKK(Ac)-AMC/10.8 pmol/min/μg
Compound: Ac-Gln-Pro-Lys-Lys(Ac)-AMC (Ac-QPKK(Ac)-{AMC}; SMILES CC(=O)NCCCC[C@H](NC(=O)[C@H](CCCCN)NC(=O)[C@@H]1CCCN1C(=O)[C@H](CCC(N)=O)NC(C)=O)C(=O)Nc1ccc2c(C)cc(=O)oc2c1) [Ac-QPKK(Ac)-AMC, reference compound]

Activity (pmol/min/μg) [7]: Ac-LGK(TFAc)-AMC/9960 pmol/min/μg | Activity (pmol/min/μg) [8]: Ac-LGK(TFAc)-AMC/1670 pmol/min/μg | Activity (pmol/min/μg) [9]: Ac-LGK(TFAc)-AMC/3330 pmol/min/μg
Compound: Ac-Leu-Gly-Lys(TFAc)-AMC [Ac-LGK(TFAc)-AMC, reference compound]
Activity (pmol/min/μg) [6]: Ac-LGK(TFAc)-AMC/1390 pmol/min/μg

Compound: Hist. H3 1-20, K9Ac: unlabeled peptide, histone H3 residues 1-20 acetylated on lysine-9
Km ([10]; Borra et al., 2004, read-out: Km (Lysyl substrate)): 24 µM | kcat ([10]; Borra et al., 2004): 0.24 s⁻¹

Source: patent US10920265B2, “Compounds and methods for detection of enzymes that remove methyl succinyl groups from epsilon-amino lysine moieties” (Enzo Life Sciences, Inc., priority 2011, dated 2021)
